From paper PMC9944927, “Mutant structure of metabolic switch protein in complex with monomeric c-di-GMP reveals a potential mechanism of protein-mediated ligand dimerization” (Scientific Reports, 2023) come the findings set out here.

pKd: −log10 of the molar value.

The target in experiment [1] is T1, SmbA (Caulobacter vibrioides, UniProt Q9A5E6).
T1 construct: gene CC_2504; SmbAwt, His6
T1 sequence (Q9A5E6 1-296): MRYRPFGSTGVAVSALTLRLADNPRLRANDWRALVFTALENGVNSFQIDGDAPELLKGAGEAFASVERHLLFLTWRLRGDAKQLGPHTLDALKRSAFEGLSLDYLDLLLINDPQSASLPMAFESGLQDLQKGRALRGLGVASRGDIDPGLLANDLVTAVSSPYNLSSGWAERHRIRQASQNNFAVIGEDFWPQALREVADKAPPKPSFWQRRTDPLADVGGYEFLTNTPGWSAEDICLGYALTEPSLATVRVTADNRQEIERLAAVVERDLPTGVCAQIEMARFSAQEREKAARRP
The experiment in a line: ITC (apparent Kd); AUC sedimentation shift. The experiment is classed as binding.

In experiment [2] the target is T2, SmbA (Caulobacter vibrioides, UniProt Q9A5E6, DEL198-215).
T2 construct: gene CC_2504; SmbA∆loop, partial loop 7 deletion (fragment 198–215 deleted), His6
T2 sequence (Q9A5E6 with tags, fused parts or gaps DEL198-215): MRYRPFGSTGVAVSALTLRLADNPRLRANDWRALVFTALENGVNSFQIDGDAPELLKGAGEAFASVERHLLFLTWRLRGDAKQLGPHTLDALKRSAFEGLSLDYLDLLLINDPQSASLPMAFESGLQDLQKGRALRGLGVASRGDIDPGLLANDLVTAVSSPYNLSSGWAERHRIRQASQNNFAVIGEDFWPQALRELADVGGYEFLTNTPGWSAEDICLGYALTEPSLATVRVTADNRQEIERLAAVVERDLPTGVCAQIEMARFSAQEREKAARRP
The experiment can be described thus: X-ray crystal structure at […] Å; ITC ([…] stoichiometry). Type of experiment: binding.

As to `Nc1nc2c(ncn2[C@@H]2O[C@@H]3CO[P@](=O)(O)O[C@H]4[C@@H](O)[C@H](n5cnc6c(=O)[nH]c(N)nc65)O[C@@H]4CO[P@](=O)(O)O[C@H]3[C@H]2O)c(=O)[nH]1` [c-di-GMP], the pKd – broadly, the Kd on a negative log10 scale, so that one unit is a factor of ten – was 6.52 at SmbA [1] and 5.74 on SmbA [2].
